In patent US4124598A, “Psoralens” (Hoffmann-La Roche Inc., priority 1976, dated 1978):
pKd: −log10 of the molar value. Structures can show the parent of a compound that is named as a salt. Where two headings read alike, the source gives them in different places.

Legend:
[1] = Hydrolysis in aqueous solution; assay type: physicochemical
Calf thymus DNA [2] = test: Equilibrium dialysis, non-covalent binding to DNA
Experimental: (§1) In order to establish the dissociation constants from DNA and RNA, the non-covalent binding was ascertained. Non-covalent binding determines the presence of the psoralen within the nucleic acid helix. Its presence is determined in the absence of any radiant energy. As noted before, radiant energy is necessary to activate the psoralen covalent binding reaction with nucleic acid base pairs.
(§2) To determine the non-covalent binding, Calf thymus DNA (Sigma Type I) was dissolved in a 0.01 M Tris 0.001 M EDTA pH 8.5 buffer at a concentration of 25 ug/ml. A quantity of this DNA solution was placed in a dialysis bag (pretreated by boiling in NaHCO3), and the various tritiated derivatives were added inside the bag in half the cases and outside the bag in the other half. The molar ratio of psoralen molecules to base pairs was approximately 1:25. The bags were placed in vials filled with 18 ml of buffer and put on a shaker for 48-60 hours. After this period, radioactivity was determined both inside and outside the bags and the optical density of the DNA solution measured. From this information, and the specific activity of each derivative, the amount of drug non-covalently bound to the DNA was determined. Binding of the derivatives to Drosophila melanogaster ribosomal RNA was measured in exactly the same manner.
(§3) The units of the dissociation constants are moles/liter. Solubilities and molar extinction coefficients (ε) were obtained in pure water, the equilibrium constants (KD) in 0.01 M Tris.

[3] = target: Drosophila melanogaster ribosomal RNA; test: Equilibrium dialysis, non-covalent binding to RNA
Experimental: as §1, §2, §3

Solubility in pure water = assay type: physicochemical; details: for solubility: pure water
Text: In order to study solubilities and dissociation constants, it is most convenient to prepare tritiated derivatives of the psoralen compounds. Thus, well-known radiation counting methods may be utilized to monitor the presence of the psoralens in solutions, or in nucleic acids.
as §3

[4] = Molar extinction coefficient in pure water; assay type: physicochemical
Text: as §3

DNA (calf thymus) [5] = test: Low intensity photoaddition (covalent binding) to DNA; details: for A (footnote 1, shown as drawing 9) / B = percent of added psoralen covalently bound: 25 μg/ml DNA, psoralen:base pair 1:3
Experimental: (§4) The covalent binding of the psoralens to DNA and RNA was studied. To achieve covalent binding, it is necessary to supply radiant energy (light) to the binding sites. These studies were carried out as follows:
(§5) The DNA and RNA used in the covalent binding studies have been described previously. Samples of each nucleic acid were prepared at a concentration of 25 ug/ml in 0.01 m Tris 0.001 M EDTA buffer. The radioactive-psoralen derivatives were added in a ratio of one psoralen for every three base pairs. The irradiation was carried out in one of the two following devices.
The low intensity irradiations were performed with a modified slide projector which was fitted with a 400 watt General Electric mercury vapor lamp (H 400 A 33-1/T16). The image of the arc was focused on the same cell, jacketed by a cobaltous nitrate solution which was also used for the high intensity irradiations. The light intensity delivered to the sample in this device was 4 to 6 mw/cm^2. The high intensity irradiations were carried out in a device containing two of the sam 400 watt General Electric mercury vapor lamps which were mounted on either side of a double walled sample chamber at a distance between centers of 4.0 cm. The chamber was cooled to 10° C. by continuous circulation of a temperature regulated solution of cobaltous nitrate (40% w/w). The cobalt solution served as an ultraviolet filter which allowed a maximum transmittance of 365 nm light and a window from approximately 340-380 nm. The intensity of the light at the surface of the inner sample chamber was approximately 100 mw/cm^2. The nucleic acid-psoralen mixture was placed in the inner chamber where it was continuously stirred throughout the irradiation. […] Each aliquot was then extracted twice with chloroform/iso-amyl alcohol (24:1) to remove unreacted psoralen followed by exhaustive dialysis against 0.01 M Tris, 0.001 M EDTA buffer. The successful extraction of unbound psoralen by the chloroform-isoamyl alcohol required the aqueous phase to be at least 0.15 M in NaCl. Finally, the optical density of the nucleic-acid psoralen mixture was taken and its radioactivity determined, thus giving the amount of derivative covalently bound to the DNA or RNA. Taking samples, at spaced time intervals also permitted an assessment of the kinetics of the covalent binding.

DNA (calf thymus) [6] = test: High intensity photoaddition (covalent binding) to DNA; details: 25 μg/ml DNA, psoralen:base pair 1:3
Experimental: as §4, §5
(§6) The low intensity irradiations were performed with a modified slide projector which was fitted with a 400 watt General Electric mercury vapor lamp (H 400 A 33-1/T16). The image of the arc was focused on the same cell, jacketed by a cobaltous nitrate solution which was also used for the high intensity irradiations. The light intensity delivered to the sample in this device was 4 to 6 mw/cm^2. The high intensity irradiations were carried out in a device containing two of the sam 400 watt General Electric mercury vapor lamps which were mounted on either side of a double walled sample chamber at a distance between centers of 4.0 cm. The chamber was cooled to 10° C. by continuous circulation of a temperature regulated solution of cobaltous nitrate (40% w/w). The cobalt solution served as an ultraviolet filter which allowed a maximum transmittance of 365 nm light and a window from approximately 340-380 nm. The intensity of the light at the surface of the inner sample chamber was approximately 100 mw/cm^2. The nucleic acid-psoralen mixture was placed in the inner chamber where it was continuously stirred throughout the irradiation. Aliquots of each solution (derivative plus nucleic acid) were taken at 20, 40 and 60 minutes. Each aliquot was then extracted twice with chloroform/iso-amyl alcohol (24:1) to remove unreacted psoralen followed by exhaustive dialysis against 0.01 M Tris, 0.001 M EDTA buffer. The successful extraction of unbound psoralen by the chloroform-isoamyl alcohol required the aqueous phase to be at least 0.15 M in NaCl. Finally, the optical density of the nucleic-acid psoralen mixture was taken and its radioactivity determined, thus giving the amount of derivative covalently bound to the DNA or RNA. Taking samples, at spaced time intervals also permitted an assessment of the kinetics of the covalent binding.

[7] = test system: RNA (Drosophila melanogaster ribosomal RNA); test: High intensity photoaddition (covalent binding) to RNA; details: 25 μg/ml RNA, psoralen:base pair 1:3
Experimental: as §4, §5, §6

[8] = test system: vesicular stomatitis virus; assay type: cell-based, Vesicular stomatitis virus Indiana strain
DNA = test: Reactivity with DNA (general statement); assay type: binding, calf
Experimental: as §4, §5
as §6, with “Each aliquot was then extracted twice with chloroform/iso-amyl alcohol (24:1) to remove unreacted psoralen followed by exhaustive dialysis against 0.01 M Tris, 0.001 M EDTA buffer. The successful extraction of unbound psoralen by the chloroform-isoamyl alcohol required the aqueous phase to be at least 0.15 M in NaCl.” left out, “Taking samples, at spaced time intervals also permitted an assessment of the kinetics of the covalent binding.” left out

Calf thymus DNA [9] = details: calculated from literature results, cited from earlier work
[10] = target: Drosophila melanogaster ribosomal RNA; details: calculated from literature results, cited from earlier work
[11] = calculated from literature results, cited from earlier work
[12] = 0.01 M Tris, non-covalent binding
[13] = saturated solution, occupied/unoccupied binding sites

With `Cc1oc2c(C)c3oc(=O)cc(C)c3cc2c1CCl` [4'-chloromethyl-4,5',8-trimethyl psoralen] the “hydrolysis of the chloromethyl substituent in aqueous solution” value [1] was “readily hydrolysed in aqueous solution”.
For `Cc1oc2c(C)c3oc(=O)cc(C)c3cc2c1CN` [4'-aminomethyl-4,5',8-trimethyl psoralen hydrochloride], the pKd (Calf thymus DNA [2]; [12]) was 5.18, the “times more effective at reaching state of site saturation” value (Calf thymus DNA [2]; calculated, DNA) was 10^4 times and the “(PS)/(S) for DNA in Saturated Solution” value (Calf thymus DNA [2]; [13]) was 5000. For the same compound, the “times more strongly binding than 4'-hydroxymethyl trioxsalen” value (Calf thymus DNA [2]; vs 4'-hydroxymethyl trioxsalen) was “about 100 times”, the “times more strongly binding to DNA than trioxsalen” value (Calf thymus DNA [2]; vs trioxsalen) was “about 8 times” and the pKd [3, 12] was 4.70. The “(PS)/(S) for RNA in Saturated Solution” value [3, 13] was 1700, the solubility (Solubility in pure water) was 10000 µg/mL and the solubility (Solubility in pure water; molar) was 34 mM. The “times more soluble than 4'-hydroxymethyl trioxsalen” value (Solubility in pure water; vs 4'-hydroxymethyl trioxsalen) was 150 times, the “Extinction coefficient ε, 250 nm” value [4] was 25000 L/mol/cm and the “rate of reaction with DNA / initial rate of photochemical binding” value (DNA (calf thymus) [5]) was “reacts with DNA much faster than trioxsalen”. For the same compound, the “A (footnote 1, shown as drawing 9)” value (DNA (calf thymus) [5]; 5 min irradiation) was 15.0, the “B = percent of added psoralen covalently bound” value (DNA (calf thymus) [5]; 5 min irradiation) was 19.3% and the “A (footnote 1, shown as drawing 9)” value (DNA (calf thymus) [5]; 10 min irradiation) was 10.5. The “B = percent of added psoralen covalently bound” value (DNA (calf thymus) [5]; 10 min irradiation) was 27.4%, the “A (footnote 1, shown as drawing 9)” value (DNA (calf thymus) [5]; 30 min irradiation) was 6.9 and the “B = percent of added psoralen covalently bound” value (DNA (calf thymus) [5]; 30 min irradiation) was 41.8%. For the same compound, the “A (footnote 1, shown as drawing 9)” value (DNA (calf thymus) [5]; 60 min irradiation) was 5.9, the “B = percent of added psoralen covalently bound” value (DNA (calf thymus) [5]; 60 min irradiation) was 48.7% and the “A (footnote 1, shown as drawing 9)” value (DNA (calf thymus) [5]; 90 min irradiation) was 5.5. For the same compound, the “B = percent of added psoralen covalently bound” value (DNA (calf thymus) [5]; 90 min irradiation) was 52.4%, the “moles of psoralen bound per mole of base pairs” value (DNA (calf thymus) [5]; 90 minutes irradiation) was 0.18 moles per mole of base pairs and the “molecules in the solution covalently bound to DNA” value (DNA (calf thymus) [5]; after 90 minutes of irradiation) was “over half”. The “A (footnote 1, shown as drawing 10)” value (DNA (calf thymus) [6]; 20 min irradiation) was 4.7, the “B = percent of added psoralen covalently bound” value (DNA (calf thymus) [6]; 20 min irradiation) was 63.8% and the “A (footnote 1, shown as drawing 10)” value (DNA (calf thymus) [6]; 40 min irradiation) was 4.8. The “B = percent of added psoralen covalently bound” value (DNA (calf thymus) [6]; 40 min irradiation) was 62.5%, the “A (footnote 1, shown as drawing 10)” value (DNA (calf thymus) [6]; 60 min irradiation) was 4.8 and the “B = percent of added psoralen covalently bound” value (DNA (calf thymus) [6]; 60 min irradiation) was 62.5%. The “A (footnote 1, shown as drawing 11)” value ([7]; 20 min irradiation) was 5.1, the “B = percent of added psoralen covalently bound” value ([7]; 20 min irradiation) was 59.4% and the “A (footnote 1, shown as drawing 11)” value ([7]; 40 min irradiation) was 5.3. The “B = percent of added psoralen covalently bound” value ([7]; 40 min irradiation) was 57.2%, the “A (footnote 1, shown as drawing 11)” value ([7]; 60 min irradiation) was 5.3 and the “B = percent of added psoralen covalently bound” value ([7]; 60 min irradiation) was 57.3%. For the same compound, the “inactivation of vesicular stomatitis virus, comparison in words” value ([8]; FIG. 2, 1-3 μg/ml, long wavelength UV) was “undisputed superiority”, the “effectiveness in inactivation of vesicular stomatitis virus vs 4,5',8-trimethyl psoralen” value ([8]; high dose rates, e.g., 30 μg/ml) was “nearly one thousand times more effective” and the “reactivity with DNA” value (DNA) was “excellent reactivity with DNA”.
In the case of `COc1c2occc2cc2ccc(=O)oc12` [8-methoxypsoralen, 8-methoxy psoralen], the “one psoralen per n base pairs at equilibrium (best achievable)” value (Calf thymus DNA [2]; saturated solution) is given as ~20 base pairs, the “Extinction coefficient ε, 250 nm” value [4] is given as 19000 L/mol/cm and the pKd (Calf thymus DNA [9]) is given as 2.60. The “(PS)/(S) for DNA in Saturated Solution” value (Calf thymus DNA [9]; saturated solution) was 0.068, the pKd [10] was 1.77 and the “(PS)/(S) for RNA in Saturated Solution” value ([10]; saturated solution) was 0.010. For the same compound, the solubility [11] was 36 µg/mL and the solubility ([11]; molar) was 170 µM.
